The record followed here is patent publication US11098029B2, “5-alkyl pyrrolidine orexin receptor agonists” (Merck Sharp & Dohme Corp., priority 2019, dated 2021).

For the experiment, the target named is human OX2R (Homo sapiens (Human), UniProt O43614). Nature of the experiment: IPOne (IP-One, Cisbio) orexin receptor agonist assay in CHO cells expressing human OX2R. Particulars: for Emax (%) / Emax: hOX2R_IP, percentage of mean max effect of a reference compound at 1 uM (100% activity vs Orexin A); for Emax: CHO.
Chain of human OX2R (O43614 whole entry): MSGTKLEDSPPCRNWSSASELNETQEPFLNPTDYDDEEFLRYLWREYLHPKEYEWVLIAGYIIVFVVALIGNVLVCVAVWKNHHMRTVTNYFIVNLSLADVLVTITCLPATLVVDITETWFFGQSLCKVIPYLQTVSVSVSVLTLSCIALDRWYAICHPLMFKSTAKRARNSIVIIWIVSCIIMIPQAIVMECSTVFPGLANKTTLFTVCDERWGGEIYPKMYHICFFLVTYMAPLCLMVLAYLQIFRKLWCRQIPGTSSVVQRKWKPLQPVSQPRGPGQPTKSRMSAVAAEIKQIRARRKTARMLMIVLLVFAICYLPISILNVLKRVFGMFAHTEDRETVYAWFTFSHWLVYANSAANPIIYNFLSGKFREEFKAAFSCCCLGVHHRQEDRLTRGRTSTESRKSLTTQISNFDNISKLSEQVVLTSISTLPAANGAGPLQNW

Procedure: Both the OX1R and/or OX2R G-coupled protein receptors (GPCRs) couple through the Gaq signaling pathway, which ultimately promotes calcium mobilization via inositol triphosphate (IP3) production.
In a typical experiment, the OX1 and OX2 receptor agonist activity is determined in accordance with the following general experimental method. Chinese hamster ovary (CHO) cells expressing human OX1R and/or the human OX2R were grown in Iscove's modified DMEM containing glutaMAX®, 1% G418, 100 U/mL penicillin, 100 μg/mL streptomycin and 10% heat-inactivated qualified fetal bovine serum (FBS). […] During this incubation, IP-one detection reagents were prepared (38:1:1 lysis buffer:D2:AB-cryptate reagents).
For each compound, data were fit to a four parameter logistic fit (ActivityBase software) and the EC50 was reported as the inflection point of the resulting curve.

Turning to `C[C@@H]1C[C@H](NS(=O)(=O)N(C)C)[C@H](CO[C@H]2CC[C@@H](c3ccccc3)CC2)N1C(=O)OCC(F)F` [Example 17, 2,2-difluoroethyl (2R,3S,5R)-3-((N,N-dimethylsulfamoyl)amino)-5-methyl-2-((((1s,4S)-4-phenylcyclohexyl)oxy)methyl)pyrrolidine-1-carboxylate], the “Emax (%)” value is 102%.

As to `COC(=O)N1[C@H](C)C[C@H](NS(=O)(=O)N(C)C)[C@@H]1CO[C@H]1CC[C@@H](c2ccccc2)CC1` [Example 19, methyl (2R,3S,5R)-3-((N,N-dimethylsulfamoyl)amino)-5-methyl-2-((((1s,4S)-4-phenylcyclohexyl)-oxy)methyl)pyrrolidine-1-carboxylate], the “Emax (%)” value came to 100%.

Molecule `COC(=O)N1[C@H](C)C[C@H](NS(C)(=O)=O)[C@@H]1CO[C@H]1CC[C@@H](c2cc(F)ccc2F)CC1` [Example 20, methyl (2R,3S,5R)-2-((((1r,4R)-4-(2,5-difluorophenyl)cyclo-hexyl)oxy)methyl)-5-methyl-3-(methylsulfona-mido)pyrrolidine-1-carboxylate] yielded a maximum response (Emax) of 102%.

Molecule `COC(=O)N1[C@H](C)C[C@H](NS(=O)(=O)N(C)C)[C@@H]1CO[C@H]1CC[C@@H](c2cc(F)ccc2F)CC1` [Example 21, methyl (2R,3S,5R)-2-((((1R,4R)-4-(2,5-difluorophenyl)cyclohexyl)oxy)methyl)-3-((N,N-dimethylsulfa-moyl)amino)-5-methylpyrrolidine-1-carboxylate] yielded an Emax of 101%.

Molecule `C[C@@H]1C[C@H](NS(=O)(=O)N(C)C)[C@H](CO[C@H]2CC[C@@H](c3cc(F)ccc3F)CC2)N1C(=O)OCC(F)F` [Example 22, 2,2-difluoroethyl (2R,3S,5R)-2-((((1r,4R)-4-(2,5-difluorophenyl)-cyclohexyl)oxy)methyl)-3-((N,N-dimethylsulfamoyl)amino)-5-methylpyrrolidine-1-carboxylate] registered an Emax of 100%.

Consider `COC(=O)N1[C@H](C)C[C@H](NS(=O)(=O)N(C)C)[C@@H]1CO[C@H]1CC[C@@H](c2ccccc2F)CC1` [Example 23, methyl (2R,3S,5R)-3-((N,N-dimethylsulfamoyl)amino)-2-((((1s,4S)-4-(2-fluorophenyl)cyclohexyl)oxy)methyl-5-methylpyrrolidine-1-carboxylate], for which the Emax was 97%.

As for `COC(=O)N1[C@H](C)C[C@H](NS(=O)(=O)CF)[C@@H]1CO[C@H]1CC[C@@H](c2cccc(F)c2)CC1` [Example 26, methyl (2R,3S,5R)-3-((fluoromethyl)sulfonamido)-2-((((1s,4S)-4-(3-fluorophenyl)cyclohexyl)oxy)methyl)-5-methylpyrrolidine-1-carboxylate], the maximal response (Emax) is 98% and the “Emax (%)” value is recorded as 102%.

Turning to `COC(=O)N1[C@H](C)C[C@H](NS(C)(=O)=O)[C@@H]1CO[C@H]1CC[C@@H](c2ccccc2C(F)(F)F)CC1` [Example 27, methyl (2R,3S,5R)-5-methyl-3-(methylsulfonamido)-2-((((1r,4R)-4-(2-(trifluorometh-yl)phenyl)cyclohexyl)oxy)methyl)pyrrolidine-1-carboxylate], the Emax was 100%.

`COC(=O)N1[C@H](C)C[C@H](NS(C)(=O)=O)[C@@H]1CO[C@H]1CC[C@@H](c2c(F)ccc(F)c2F)CC1` [Example 28, methyl (2R,3S,5R)-5-methyl-3-(methylsulfonamido)-2-((((1r,4R)-4-(2,3,6-trifluorophenyl)-cyclohexyl)oxy)methyl)pyrro-lidine-1-carboxylate]: the Emax turned out to be 102%.

As for `COC(=O)N1[C@H](C)C[C@H](NS(=O)(=O)CF)[C@@H]1CO[C@H]1CC[C@@H](c2ccccc2)CC1` [Example 29, methyl (2R,3S,5R)-3-((fluoromethyl)sulfonamido)-5-methyl-2-((((1r,4R)-4-phenylcyclohexyl)oxy)meth-yl)pyrrolidine-1-carboxylate], the Emax was 102%.

On to `COC(=O)N1[C@H](C)C[C@H](NS(=O)(=O)N(C)C)[C@@H]1CO[C@@H]1CC[C@H](c2ccccc2)CC1F` (stereo partly drawn) [Example 30, methyl (2R,3S,5R)-3-((N,N-dimethylsulfamoyl)amino)-2-((((1R,4S)-2-fluoro-4-phenylcyclohexyl)oxy)methyl)-5-methylpyrrolidine-1-carboxylate], for which the Emax is 100%.

With `COC(=O)N1[C@H](C)C[C@H](NS(=O)(=O)N(C)C)[C@@H]1CO[C@@H]1CC[C@H](c2cccc(F)c2)CC1F` (stereo partly drawn) [Example 31, methyl (2R,3S,5R)-3-((N,N-dimethylsulfamoyl)amino)-2-((((1R,4S)-2-fluoro-4-(3-fluorophenyl)cyclohexyl)oxy)methyl)-5-methylpyrrolidine-1-carboxylate], the maximal response (Emax) came out at 100%.

Molecule `COC(=O)N1[C@H](C)C[C@H](NS(=O)(=O)N(C)C)[C@@H]1CO[C@H]1CC[C@@H](c2cc(F)cc(F)c2)CC1` [Example 32, methyl (2R,3S,5R)-2-((((1s,4S)-4-(3,5-difluorophenyl)cyclohexyl)oxy)methyl)-3-((N,N-dimethylsulfamoyl)amino)-5-methylpyrrolidine-1-carboxylate] gave an Emax of 101%.

On to `COC(=O)N1[C@H](C)C[C@H](NS(C)(=O)=O)[C@@H]1COC1CCC(c2ccccc2)CC1OC` (stereo partly drawn) [Example 33, methyl (2R,3S,5R)-2-(((2-methoxy-4-phenylcyclohexyl)oxy)methyl)-5-methyl-3-(methylsulfonamido)pyrrolidine-1-carboxylate], for which the IC50 was found to be 2150 nM and the Emax is 92%.

For the molecule `COC(=O)N1[C@H](C)C[C@H](NS(C)(=O)=O)[C@@H]1COC1CCC(c2ccccc2)CC1C` (stereo partly drawn) [Example 34, methyl (2R,3S,5R)-5-methyl-2-(((2-methyl-4-phenylcyclohexyl)oxy)methyl)-3-(methylsulfonamido)pyrrolidine-1-carboxylate], the IC50 was determined as 37.5 nM and the Emax was 99%.

Take `COC(=O)N1[C@H](C)C[C@H](NS(=O)(=O)N(C)C)[C@@H]1CO[C@@H]1CC=C(c2cccc(F)c2)CC1` [Example 35, methyl (2R,3S,5R)-3-((N,N-dimethylsulfamoyl)amino)-2-((((S)-3′-fluoro-2,3,4,5-tetrahydro-[1,1′-biphenyl]-4-yl)oxy)methyl)-5-methylpyrrolidine-1-carboxylate]: the IC50 came to 12.5 nM and the maximum response (Emax) worked out at 102%.

The molecule `COC(=O)N1[C@H](C)C[C@H](NS(=O)(=O)N(C)C)[C@@H]1CO[C@H]1CCC(c2cccc(F)c2)C(O)C1` (stereo partly drawn) [Example 36, methyl (2R,3S,5R)-3-((N,N-dimethylsulfamoyl)amino)-2-((((1S)-4-(3-fluorophenyl)-3-hydroxycyclohexyl)oxy)methyl)-5-methylpyrrolidine-1-carboxylate] gave a concentration for half-maximal inhibition (IC50) of 0.76 nM and an Emax of 99%.

Molecule `CNS(=O)(=O)N[C@H]1C[C@@H](C)N(C(=O)OC(C)C)[C@H]1COC1CCN(c2ncccn2)CC1` [Example 38, isopropyl (2R,3S,5R)-5-methyl-3-((N-methylsulfamoyl)amino)-2-(((1-(pyrimidin-2-yl)piperidin-4-yl)oxy)methyl)pyrrolidine-1-carboxylate] had an IC50 of 7.07 nM and a maximum response (Emax) of 100%.

`CC(C)OC(=O)N1[C@H](C)C[C@H](NS(=O)(=O)N(C)C)[C@@H]1COC1CCN(c2ncc(F)cn2)CC1` [Example 39, isopropyl (2R,3S,5R)-3-((N,N-dimethylsulfamoyl)amino)-2-(((1-(5-fluoropyrimidin-2-yl)piperidin-4-yl)oxy)methyl)-5-methylpyrrolidine-1-carboxylate] yielded a maximal response (Emax) of 101%.

Turning to `CCC1CC(NS(C)(=O)=O)C(CO[C@H]2CC[C@@H](c3ccccc3)CC2)N1C(=O)OC` (stereo partly drawn) [Example 40, methyl (CIS)-5-ethyl-3-(methylsulfonamido)-2-((((CIS)-4-phenylcyclohexyl)oxy)-methyl)pyrrolidine-1-carboxylate], the “Emax (%)” value was 100%.

`COC(=O)N1C(C2CC2)C[C@H](NS(C)(=O)=O)C1COC1CCC(c2ccccc2)CC1` (stereo partly drawn) [Example 44, methyl (CIS)-5-cyclopropyl-3-(methylsulfonamido)-2-((((CIS)-4-phenylcyclohexyl)oxy)methyl)pyrrolidine-1-carboxylate] showed an Emax of 101%.

With `CC[C@H]1C[C@@H](NS(C)(=O)=O)[C@@H](CO[C@H]2CC[C@@H](c3ccccc3)CC2)N1C(=O)OC` [Example 45, methyl (2S,3R,5S)-5-ethyl-3-(methylsulfonamido)-2-((((CIS)-4-phenylcyclohexyl)oxy)methyl)-pyrrolidine-1-carboxylate], the Emax is 62%.

Take `CC[C@@H]1C[C@H](NS(C)(=O)=O)[C@H](CO[C@H]2CC[C@@H](c3ccccc3)CC2)N1C(=O)OC` [Example 46, methyl (2R,3S,5R)-5-ethyl-3-(methylsulfonamido)-2-((((CIS)-4-phenylcyclohexyl)oxy)methyl)pyrrolidine-1-carboxylate]: the maximal response (Emax) is 101%.

Consider `COC(=O)N1C(CCO)CC(NS(C)(=O)=O)C1CO[C@H]1CC[C@@H](c2ccccc2)CC1` (stereo partly drawn) [Example 49, methyl (CIS)-5-(2-hydroxyethyl)-3-(methylsulfonamido)-2-((((CIS)-4-phenylcyclohexyl)oxy)methyl)pyrrolidine-1-carboxylate], for which the “Emax (%)” value is listed as 102%.

Regarding `COC(=O)N1C(CO)CC(NS(C)(=O)=O)C1CO[C@H]1CC[C@@H](c2ccccc2)CC1` (stereo partly drawn) [Example 50, methyl (CIS)-5-(hydroxymethyl)-3-(methylsulfonamido)-2-((((CIS)-4-phenylcyclohexyl)oxy)-methyl)pyrrolidine-1-carboxylate], the “Emax (%)” value was found to be 101%.

As to `COC[C@@H]1C[C@H](NS(=O)(=O)N(C)C)[C@H](CO[C@H]2CC[C@@H](c3cccc(F)c3)CC2)N1C(=O)OC` [Example 51, methyl (2R,3S,5S)-3-((N,N-dimethylsulfamoyl)amino)-2-((((CIS)-4-(3-fluorophenyl)cyclohexyl)-oxy)methyl)-5-(methoxymethyl)pyrrolidine-1-carboxylate], the Emax is 101%.
